{
  "source": "paper PMC5581131",
  "about": "“The novel sphingosine-1-phosphate receptors antagonist AD2900 affects lymphocyte activation and inhibits T-cell entry into the lymph nodes” (Oncotarget, 2017)",
  "key": {"CEM/C1": {"test_system": "CEM/C1", "assay": "XTT viability assay, CEM/C1", "format": "cell-based, human", "conditions": "1-day treatment, compared with Jurkat (>10 μM)", "procedure": "Figure 1 AD2900 inhibits human lymphocyte proliferation in allogeneic activation (A, B) The levels of proliferative response of human peripheral blood lymphocytes (PBMCs) after 1-day pretreatment with different concentrations of AD2900, AD2750, YZ138, YZ158, and YZ297 (A) or AD2900, FTY720, and SEW2871 (B) were tested by human allogeneic mixed lymphocyte reaction (MLR) assay, followed by a [3H] thymidine incorporation analysis. (C) Apoptosis of AD2900-treated activated PBMCs was tested by AnnexinV-propidium iodide (PI) FACS analysis following 1-day AD2900 pretreatment and MLR. All the samples were compared to the untreated PBMC control. (D) IFN-γ secretion from activated PBMCs was tested by ELISA following a 1-day AD2900 pretreatment in MLR. On the 5th day of hMLR, supernatants were collected and assayed for the level of IFN-γ. (E) Jurkat cell viability after a 1-day treatment with different concentrations of AD2900, FTY720, and SEW2871 was tested by XTT viability assay. (F) H9, CEM/C1, and Molt4 cell viability after a 1-day treatment with different concentrations of AD2900 was tested by XTT viability assay. Graphs summarize the results of at least three independent experiments. Results of Student’s t-test: *(P < 0.05, two-tailed test), ** (P < 0.01, two-tailed test), *** (P < 0.001, two-tailed test), **** (P < 0.0001, two-tailed test). […]"}, "C57BL/6 mice": {"test_system": "C57BL/6 mice", "assay": "T, B and NK cell populations in blood, spleen and lymph nodes, FACS", "format": "in vivo, mouse", "text": "S1P receptors are differentially expressed by distinct immune cell populations. Since AD2900 is an antagonist to all S1P receptors, we next evaluated its influence on the localization of different murine lymphocyte populations. To achieve this aim, we performed FACS analysis of the blood (Figure 5A), spleen (Figure 5B), and lymph node cells (Figure 5C) using antibodies against surface markers of T cells, B cells, and NK cells (TCR-β, CD19, and CD49b, respectively). […] The NK cell count was elevated by 55.7% (4.741 ± 0.8621 × 10^6 cells/ml) after a 7-day treatment with AD2900. […] The trend in the B-cell change was opposite to that in the T- and NK cell changes in the lymph nodes.\nFigure 5 AD2900 treatment affects the distribution of T cells, B cells, and NK cells in blood, spleen, and peripheral lymph nodes C57BL/6 mice were orally administered with AD2900 or FTY720, as shown in Figure 4. Leukocytes from blood, spleen, and pLNs were collected and stained with TCR-β, CD19, and CD49b fluorescent antibodies and then analyzed by FACS analysis. The percentages of TCR-β+ T cells (left panel), CD19+ B cells (central panel), and CD49b+ NK cells (right panel) of the total leukocytes from blood (A), spleen (B), and pLNs (C) are shown. The results of T and B cells are from 2 days’ experiments. The results of NK cells are from 2 and 7 days’ experiments. All the significances are compared to untreated healthy mice. Results summarize three independent experiments. Results of Student’s t-test:*(P < 0.05, two-tailed test), ** (P < 0.01, two-tailed test), *** (P < 0.001, two-tailed test), **** (P < 0.0001, two-tailed test).\nMurine lymphocytes: The phenotype of murine lymphocytes was analyzed by flow cytometry using anti-CD3e-FITC, anti-CD19-PB, anti-CCR7-APC, anti-CD44-FITC, anti-CD62L-APC, and anti-TCR-β-PB (Biolegend, CA, USA).\nTo eliminate the red blood cells, RBC lysis buffer (Beit Haemek, Israel) or BD FACS lysing solution (BD Biosciences, CA, USA) was added into murine blood and splenocyte samples. Flow cytometry was performed using the MACSQuant® Analyzer (Miltenyi Biotech, Germany), and the data were analyzed using FCS Express V3 software.\nC57BL/6 female mice aged 7–8 weeks were obtained from Harlan Laboratories (Jerusalem, Israel). The animal study was conducted under appropriate conditions and was approved by the Institutional Animal Care and Use Committee of the Hebrew University of Jerusalem in accordance with the national laws and regulations for the protection of animals. AD2900 was dissolved in 10% BSA (MP Biomedicals, CA, USA) in DDW at 1 mg/ml and then further diluted in 200 ml water to get final concentrations at 1.8, 2.7, or 3.6 mg/l. AD2900 and FTY720 were supplied ad libitum to the mice for 2 days or 7 days. At the end of the experiment, blood was collected, and the mice were sacrificed and tissues (lymph nodes and spleen) were harvested."}},
  "data": [
    {"smiles": "CCCCCCCCCCCCCCCCNC(CO)(CO)CO", "note": "[AD2900]", "values": [
      {"measurement": "cell viability, CEM/C1", "setting": "CEM/C1", "value": "reduced cell viability could be detected even at lower concentrations"},
      {"measurement": "T cells in the blood, value in parentheses", "setting": "C57BL/6 mice; 1.8 mg/l, 2-day treatment", "value": "0.7488 ± 0.1641 × 10^6 cells/ml"},
      {"measurement": "increase of average count of T cells in the blood", "setting": "C57BL/6 mice; 1.8 mg/l, 2-day treatment", "value": 81.9, "unit": "%"},
      {"measurement": "T cells in the lymph nodes, value in parentheses", "setting": "C57BL/6 mice; 2-day treatment", "value": "0.7411 ± 0.2217 × 10^5 cells/ml"},
      {"measurement": "T cells in the spleen, value in parentheses", "setting": "C57BL/6 mice; 2-day treatment", "value": "11.79 ± 3.64 × 10^6 cells/ml"},
      {"measurement": "decrease of T-cell average count in the lymph nodes", "setting": "C57BL/6 mice; 2-day treatment", "value": 30, "unit": "%"},
      {"measurement": "increase of average count of T cells in the spleen", "setting": "C57BL/6 mice; 2-day treatment", "value": 96.7, "unit": "%"},
      {"measurement": "NK cells in the blood, value in parentheses", "setting": "C57BL/6 mice; 7-day treatment", "value": "0.3987 ± 0.0706 × 10^6 cells/ml"},
      {"measurement": "NK cells in the lymph nodes, value in parentheses", "setting": "C57BL/6 mice; 7-day treatment", "value": "0.07852 ± 0.03572 × 10^5 cells/ml"},
      {"measurement": "NK cells in the spleen, value in parentheses", "setting": "C57BL/6 mice; 7-day treatment", "value": "4.741 ± 0.8621 × 10^6 cells/ml"},
      {"measurement": "decrease of NK cell count in the lymph nodes", "setting": "C57BL/6 mice; 7-day treatment", "value": 20.8, "unit": "%"},
      {"measurement": "elevation of NK cell count in the spleen", "setting": "C57BL/6 mice; 7-day treatment", "value": 55.7, "unit": "%"},
      {"measurement": "increase of average NK cell count in the blood", "setting": "C57BL/6 mice; 7-day treatment", "value": 52.1, "unit": "%"},
      {"measurement": "B cell count in all the organs", "setting": "C57BL/6 mice; blood, spleen, lymph nodes", "value": "not significantly influenced"}
    ]}
  ]
}
